The text below walks through data of PubChem BioAssay (NCI).

Holding throughout (assay): NCI-60 cell line screen, 48 h
For experiment [1], the system named is HCC-2998 colon.
The subject of experiment [2] is HS 578T breast.
Experiment [3] concerns HT29 colon.
The test system of experiment [4] is IGROV1 ovarian.
The test system of experiment [5] is KM12 colon.
Experiment [6] has as its system MOLT-4 leukemia.
Experiment [7] concerns OVCAR-4 ovarian.
For experiment [8], the system named is SF-268 CNS.
Experiment [9] deals with SNB-19 CNS.
For experiment [10], the system named is SK-MEL-2 melanoma.

Several values for one entry are separate records, joined by “and”; a condition that tells them apart may be missing. Equal values may be shown once.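 Values below derive from 48-hour exposures of cells grown in 96-well plates, with endpoints linearly interpolated between the two concentrations bracketing the appropriate inhibition level. The concentration for 50% growth inhibition is given as GI50. TGI: total growth inhibition.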

For `O=C(CCl)N1CCN(c2ccccn2)CC1`, the TGI in experiment [1] is 35.8 µM; in experiment [2], greater than 100 µM; in experiment [3], 32.3 µM; in [4] it was 45.7 µM; in experiment [5] it was 94 µM; in experiment [6], greater than 100 µM. Also, the TGI is 31 µM in experiment [7], 63.8 µM in [8] and greater than 100 µM in [9].

Regarding `CN(C)Cc1ccc(O)c(CN(C)C)n1`, the TGI in experiment [2], in experiment [3], in [4], in experiment [5], in [6] and in experiment [7] was greater than 100 µM throughout. Further, the TGI in experiment [8], in experiment [10] and in [9] was greater than 100 µM throughout.

As for `Cc1c(Br)c(Br)c2c3c1nc(N1CCNCC1)n3CCC2`, the GI50 in [1] was 1.81 µM; in experiment [2], 2.45 µM; in [3], 1.51 µM; in [4], 1.41 µM; in [5], 1.72 µM; in experiment [7] it was 2.46 µM. Moreover, the GI50 is 2.12 µM in experiment [8], 1.95 µM in [10] and 1.56 µM in experiment [9]. The TGI in [1] was found to be 3.51 µM; in experiment [2], 6.5 µM; in [3], 3.2 µM; in [4], 3.12 µM; in experiment [5], 3.2 µM; in experiment [7] it was 6.1 µM. The TGI in experiment [8] is 4.78 µM; in [10], 4.06 µM; in [9], 3.01 µM.

Consider `COc1cc2c3c(n(CCCNCCCCN)c(=O)c2cc1OC)-c1cc2c(cc1C3=O)OCO2`, for which the GI50 in experiment [2] was 3.76 µM; in experiment [3], 4.57 µM; in experiment [4] it was greater than 21.2 µM; in experiment [5], 4.58 µM; in experiment [7], 7.31 µM; in experiment [8], 3.1 µM. The values for the GI50 in experiment [10] and in experiment [9] were 4.86 µM and 2.65 µM, respectively. In addition, the TGI in experiment [2] is 16.1 µM; in [3], greater than 100 µM; in [4], greater than 100 µM; in experiment [5], 21.7 µM; in experiment [6], greater than 19.6 µM; in experiment [7] it was 29.9 µM. The TGI in experiment [8] was 10.3 µM; in experiment [10] it was 16.4 µM; in [9] it was 18.8 µM.

`O=C(CCl)N1CCN(c2ccccc2)CC1`: the TGI in experiment [1] was 32.2 µM; in [2] it was 76.7 µM; in experiment [3], 41.4 µM; in [4], 51.7 µM; in experiment [5], 37.2 µM; in experiment [6], greater than 100 µM. For the same compound, the values for the TGI in experiment [7], in experiment [8] and in experiment [9] were 32.9 µM, 33 µM and greater than 100 µM, respectively.

Consider `CC1(C)CCC2(C(=O)O)C(O)CC3(C)C(=CCC4C5(C)CCC(OC6OCC(O)C(O)C6OC6OCC(O)C(O)C6OC6OCC(O)C(OC7OC(CO)C(O)C(O)C7O)C6O)C(C)(C)C5CCC43C)C2C1` (stereo unspecified), for which the TGI was greater than 100 µM in experiment [1]; greater than 100 µM in experiment [2]; greater than 100 µM in experiment [3]; greater than 100 µM in experiment [4]; 44.1 µM in [5]; 88.7 µM in experiment [7]. Also, the values for the TGI in [8], in experiment [10] and in experiment [9] were 64 µM, 76.3 µM and 43.6 µM, respectively.

For the compound `O=C(O)c1cc(-c2ccc(-c3ccccc3)cc2)nc2cc3ccccc3cc12`, the TGI in experiment [2], in experiment [3], in experiment [4], in experiment [5], in experiment [6] and in experiment [7] was greater than 100 µM each time. Also, the TGI in [8], in [10] and in experiment [9] was greater than 100 µM in each case.

Turning to `CCN(CC)CCN1C(=O)c2c(c3c4cccc(Cl)c4n(C4OC(CO)C(OC)C(O)C4O)c3c3[nH]c4c(Cl)cccc4c23)C1=O` (stereo unspecified), the GI50 was 0.000104 µM and < 0.0299 µM and < 0.01 µM in experiment [1]; less than 0.0001 µM in experiment [3]; 0.000316 µM and < 0.0231 µM and < 0.01 µM in [5]; less than 0.0001 µM in experiment [6]; less than 0.0001 µM in experiment [8]; 0.00103 µM and < 0.01 µM in experiment [10]. This compound also came in with a TGI in experiment [2] of 1.99 µM.

As to `COc1cccc(N2C(=N)/C(=C3\Nc4ccccc4S3)CC2=O)c1`, the GI50 is 27.5 µM in experiment [2]; 3.34 µM in [3]; 7.58 µM in experiment [4]; 7.48 µM in experiment [5]; 2.4 µM in [6]; 12.1 µM in experiment [7]. The GI50 in experiment [8] was 5.22 µM; in [10] it was 48.4 µM; in [9] it was 18.9 µM. The TGI in [2] is greater than 100 µM; in experiment [3], greater than 100 µM; in experiment [4], greater than 100 µM; in experiment [5], greater than 100 µM; in experiment [6] it was greater than 100 µM; in experiment [7], 71.9 µM. The TGI in experiment [8], in [10] and in experiment [9] was greater than 100 µM in each case.

For `CCCCNC(=O)CC1=C(C)/C(=C/c2[nH]c(-c3ccc[nH]3)cc2OC)N=C1C`, the GI50 was 2.66 µM in [2]; 2.18 µM in experiment [3]; 3.23 µM in experiment [4]; 1.8 µM in experiment [5]; 1.93 µM in [6]; 2.12 µM in experiment [7]. The GI50 in experiment [8] is 2.66 µM; in experiment [10], 1.72 µM; in experiment [9], 4.09 µM. For the same compound, the TGI was 9.11 µM in [2]; 11.1 µM in experiment [3]; 10.3 µM in experiment [4]; 10.6 µM in experiment [5]; 9 µM in [6]; 19.2 µM in experiment [7]. In addition, the TGI in experiment [8] amounted to 15 µM; in experiment [10] it was 3.87 µM; in experiment [9] it was 30.1 µM.

On to `N#C/C(=C\c1ccc(O)c(O)c1)C(=O)NCc1cccc(C(F)(F)F)c1`, for which the GI50 in experiment [1] is 10.3 µM; in [2], 12 µM; in experiment [3], 22 µM; in [5], 4.04 µM; in [6], 5.65 µM; in experiment [7] it was 15.1 µM. Also, the GI50 is 13.7 µM in experiment [8], 0.115 µM in experiment [10] and 19.4 µM in experiment [9]. Also, the TGI in [1] amounted to 22.2 µM; in experiment [2], 47.3 µM; in experiment [3], 56.3 µM; in experiment [5], 19.6 µM; in experiment [6] it was 41.2 µM; in experiment [7] it was 74.4 µM. The figures for the TGI in experiment [8], in experiment [10] and in experiment [9] were 42.1 µM, 2.98 µM and greater than 100 µM, respectively.
